Patent US20260166061A1, “COMPOUND, RACEMATE OF SAID COMPOUND, SALT OF SAID COMPOUND OR SAID RACEMATE, COMPOSITION, ANTI-INFLAMMATORY AGENT, THERAPEUTIC AGENT FOR DEMENTIA, AND THERAPEUTIC AGENT FOR RETT SYNDROME” (INSTITUTE OF RHEOLOGICAL FUNCTION OF FOOD CO., LTD., priority 2021, published 2026)

Key:
[1] = Evaluation of body weight of MeCP2-deficient mice; type: in vivo; conditions: male MeCP2-deficient mice, 20 ng/g body weight, drinking water
Method: MeCP2-deficient mice to which KIT-13 was administered were subjected to measurement of the body weight every week, and changes in the body weight were evaluated. For the test, 4-week-old male MeCP2-deficient mice were used. The MeCP2-deficient mice were divided into the following two groups: a KIT-13 administration group (KO-KIT-13, n=14) and a control group (KO, n=21). In the KIT-13 administration group, KIT-13 was administered at 20 ng/g body weight by drinking-water administration in the same manner as in Test Example 3. In the control group, only water was given in the same manner.

p65 (NFkB) in BV2 cells = assay: LPS-induced nuclear p65 expression in BV2 cells (Western blotting); type: cell-based, mice; conditions: 5 μg/mL, 16 hours pre-culture, LPS (1 g/mL) 6 hours, 20 μg nuclear protein, n=2, FIG. 1
Method: (§1) Under conditions where KIT-2 or KIT-13 was present (5 μg/mL), or where neither KIT-2 nor KIT-13 was present, BV2 cells, which are microglial cells in mice, were cultured for 16 hours in DMEM medium supplemented with 2% fetal bovine serum (FBS). Thereafter, treatment with LPS ([…]) was carried out for 6 hours. Subsequently, nuclear protein was extracted from the cells, and p65 was detected by the Western blotting method. The antibody used for the detection was an anti-p65 NFkB antibody (Ref no. 51-0500, manufactured by Invitrogen).

MeCP2-deficient mice [2] = assay: RTT-like scoring using RTT model mice; type: in vivo; conditions: male MeCP2-deficient mice, 20 ng/g body weight, drinking water, scored weekly from 5 weeks old, FIG. 5
Method: RTT-like symptoms in MeCP2-deficient mice to which KIT-13 was administered were evaluated by RTT-like scoring. For the test, 4-week-old male MeCP2-deficient mice were used. The MeCP2-deficient mice were divided into the following two groups: a KIT-13 administration group (KO-KIT-13, n=14) and a control group (KO, n=15). In the KIT-13 administration group, KIT-13 was administered at 20 ng/g body weight by drinking-water administration in the same manner as in Test Example 3. In the control group, only water was given in the same manner.
The RTT-like scoring was carried out once a week from 5 weeks old, for the following items 1 to 6.
Each mouse was observed after gently placing the mouse on a platform. • 0 points: Same as the wild type. • 1 point: Lower mobility compared to the wild type. (The period of freezing after the first placement on the platform is longer, or the period during which the mouse is standing still is longer.) • 2 points: No spontaneous movement after the placement on the platform. The mouse can move in response to mild stimuli or food placed nearby.
• 0 points: Same as the wild type. • 1 point: Due to a severe reduction in the pelvis, the mouse spreads the hindlimbs apart during walking or running, compared to the wild type. Waddling gait.
Staggering gait. • 2 points: More remarkable abnormality. […]

MeCP2-deficient mice [3] = assay: Evaluation of lifetime using RTT model mice; type: in vivo; conditions: male MeCP2-deficient mice, 20 ng/g body weight, drinking water twice a week
Method: For the test, 4-week-old male MeCP2-deficient mice were used. The MeCP2-deficient mice were divided into the following two groups: a KIT-13 administration group (KO-KIT-13, n=14) and a control group (KO, n=28). The body weight of each mouse was measured in advance. For the KIT-13 administration group, KIT-13 was suspended in water by ultrasonication, and administered twice a week by drinking-water administration such that 20 ng/g body weight of KIT-13 was taken. On the other hand, in the control group, only water was given in the same manner.

IL-1β in BV2 cells = assay: LPS-induced IL-1β protein in BV2 cell culture supernatant (ELISA); type: cell-based, mice; conditions: 5 μg/mL, 16 hours pre-culture, LPS (1 g/mL) 6 hours, n=4, FIG. 2
Method: as §1
In addition, 20 μL of the cell culture supernatant after the LPS treatment was subjected to detection of the inflammatory cytokine IL-1ß by the ELISA method using a mouse IL-1β ELISA kit (manufactured by R&D Systems; Catalog No. DY401-05).

[4] = tested on: c57BL6J mice with LPS-induced memory impairment; assay: Water maze test in LPS-induced memory impairment model mice; type: in vivo; conditions: 10 mg/50 kg/day in drinking water for 30 days plus 7 days LPS (250 mg/kg/day), sixth trial, P<0.01, n=5, FIG. 7
Method: The effect of KIT-13 on LPS-induced memory impairment in mice was studied. Eight-week-old male c57BL6J mice (5 individuals per group; n=5) were allowed to drink KIT-13 for 30 days at a dose of 10 mg/50 kg/day, and then LPS treatment (250 mg/kg/day) was carried out for 7 days while the mice were similarly allowed to drink KIT-13. Thereafter, a water maze test was carried out for 2 days (three trials per day).
The time required for the mice to reach an escape platform (arrival time) was as illustrated in FIG. 7. Intergroup comparison was carried out using the ANOVA test and the Bonferroni post-hoc test. […] Thus, KIT-13 is effective for improvement of the brain function (cognitive function).

IL-1β gene in BV2 cells = assay: LPS-induced IL-1β gene expression in BV2 cells (PCR); type: cell-based, mice; conditions: 5 μg/mL, 16 hours pre-culture, LPS (1 μg/mL) 2 hours, vs. no addition, β-actin internal standard, FIG. 3
Method: Under conditions where sPIs or KIT-13 was present (5 μg/mL), or where neither sPIs nor KIT-13 was present, BV2 cells were cultured for 16 hours in DMEM medium supplemented with 2% fetal bovine serum (FBS). Thereafter, treatment with LPS (1 μg/mL) was carried out for 2 hours. Subsequently, cellular RNA was extracted using the TRIzol (trademark) reagent, and cDNA was prepared from the RNA using a PrimeScript (trademark) 1st strand cDNA Synthesis Kit (manufactured by Takara; 6110). Using TaKaRa Taq (trademark) (manufactured by Takara; R110A), the expression levels of the IL-1β gene and, as an internal standard, the β-actin gene were quantified by polymerase chain reaction (PCR).
The base sequences of the forward primer and the reverse primer for the IL-1ß gene are shown in SEQ ID NOs: 1 and 2, respectively. The base sequences of the forward primer and the reverse primer for the β-actin gene are shown in SEQ ID NOs: 3 and 4, respectively.

## CCCCC/C=C\C/C=C\C/C=C\C/C=C\CCCC(=O)O[C@H](COCCCCCCCCCCCCCCCCCC)COP(=O)(O)OCCN [KIT-13]
[1]
  toxicity (concluded from body weight): non-toxic
[1]; weekly measurement, t-test, FIG. 6
  changes in the body weight vs control group: No statistical difference
p65 (NFkB) in BV2 cells
  LPS-induced nuclear accumulation of p65: remarkably suppressed
MeCP2-deficient mice [2]
  RTT-like score: reduced the RTT-like score
MeCP2-deficient mice [3]; FIG. 4
  survival rate vs control group: higher survival rate than the control group
MeCP2-deficient mice [3]; n=14, control 64.5 days
  number of days required for the survival rate to decrease to 50%: 90 days
IL-1β in BV2 cells
  LPS-induced expression of the inflammatory cytokine IL-1β (protein per 5000 cells): remarkably decreased
[4]
  memory (arrival time at escape platform) vs LPS group: showed improvement in the memory
IL-1β gene in BV2 cells
  expression of the IL-1β gene: significantly suppressed
